In US10961202B2, “Bis-benzimidazole compounds and methods of using the same” (THE SCRIPPS RESEARCH INSTITUTE, priority 2017, dated 2021) one finds IC50 data, which are given here for 38 compounds.

This assay has as its system r(CUG)12-MBNL1 complex. Description: Inhibition of the r(CUG)12-MBNL1 complex measured by TR-FRET. It is filed as biochemical. The conditions noted are these: 80 nM RNA, 60 nM MBNL1-His6. A general note: In TR-FRET formats the signal depends on donor and acceptor labels being close together.

Some results are limits rather than exact numbers.

A word on the IC50: it is the point on the concentration scale where inhibition reaches its midpoint. Turning to `CN(C)CCCCc1ccc2nc(-c3ccc(-c4nc5ccc(CCCCN(C)C)cc5[nH]4)cc3)[nH]c2c1` [Compound 220, 4,4′-(2,2′-(1,4-phenylene)bis(1H-benzo[d]imidazole-6,2-diyl))bis(N,N-dimethylbutan-1-amine)], under “Table M”, the IC50 is more than 200 µM.

Compound `OCCCOc1ccc2nc(-c3ccc(-c4nc5ccc(OCCCO)cc5[nH]4)cc3)[nH]c2c1` [Compound 223, 3,3′-((1,4-phenylenebis(1H-benzo[d]imidazole-2,5-diyl))bis(oxy))bis(propan-1-ol)] showed an IC50 (Table M) of more than 200 µM.

`NC(=O)c1ccc(-c2nc3cc(-c4ccc5[nH]c(-c6ccc(C(N)=O)cc6)nc5c4)ccc3[nH]2)cc1` [Compound 101]: the IC50 (Table L) was more than 200 µM. Where the note is “Table M”, `N#Cc1ccc(Oc2ccc3nc(-c4ccc(-c5nc6ccc(Oc7ccc(C#N)cc7)cc6[nH]5)cc4)[nH]c3c2)cc1` [Compound 229, 4,4′-((2,2′-(1,4-phenylene)bis(1H-benzo[d]imidazole-6,2-diyl))bis(oxy))dibenzonitrile] came in with an IC50 of more than 200 µM. `CN(C)CCC#Cc1ccc(-c2nc3cc(-c4ccc5[nH]c(-c6ccc(C#CCCN(C)C)cc6)nc5c4)ccc3[nH]2)cc1` [Compound 386] yielded an IC50 (Table M) of 46.4 µM.

With `FC(F)(F)CCCOc1ccc2nc(-c3ccc(-c4nc5ccc(OCCCC(F)(F)F)cc5[nH]4)cc3)[nH]c2c1` [Compound 281], under “Table M”, the IC50 is more than 200 µM.

`CN(C)CC(CN(C)C)Oc1ccc(-c2nc3cc(-c4ccc5[nH]c(-c6ccc(OC(CN(C)C)CN(C)C)cc6)nc5c4)ccc3[nH]2)cc1` [Compound 369] registered an IC50 (Table M) of more than 200 µM. Turning to `CN(C)CCCOc1ccc2nc(-c3ccc(-c4nc5ccc(C(=O)OC(C)(C)C)cc5[nH]4)cc3)[nH]c2c1` [Compound 254, tert-butyl 2-(4-(6-(3-(dimethylamino)propoxy)-1H-benzo[d]imidazol-2-yl)phenyl)-1H-benzo[d]imidazole-6-carboxylate], the IC50 (Table M) was more than 200 µM.

As to `O=C(NCCCN1CCCCC1)c1ccc2nc(-c3ccc(-c4nc5ccc(C(=O)NCCCN6CCCCC6)cc5[nH]4)cc3)[nH]c2c1` [Compound 48, 2,2′-(1,4-phenylene)bis(N-(3-(piperidin-1-yl)propyl)-1H-benzo[d]imidazole-6-carboxamide)], inhibition (Table L) was half-maximal at 10.3 µM (IC50). This counts as double-digit micromolar. Take `CC(=O)NCCN1CCN(CCNC(=O)c2ccc3nc(-c4ccc(-c5nc6ccc(C(=O)NCCN7CCCCC7)cc6[nH]5)cc4)[nH]c3c2)CC1` [Compound 206]: the concentration for half-maximal inhibition (IC50) (Table M) was 64.4 µM.

Take `NCc1ccc(Oc2ccc3nc(-c4ccc(-c5nc6ccc(Oc7ccc(CN)cc7)cc6[nH]5)cc4)[nH]c3c2)cc1` [Compound 236, (((2,2′-(1,4-phenylene)bis(1H-benzo[d]imidazole-6,2-diyl))bis(oxy))bis(4,1-phenylene))dimethanamine]: the IC50 (Table M) amounted to 62.1 µM.

`C[C@H](C(=O)N(C)[C@H](C)C(=O)N(C)[C@H](C)C(=O)N(C)[C@H](C)C(=O)N(CCCn1cc(COCCOCCOCCOCCNC(=O)c2ccc(-c3nc4ccc(-c5ccc6nc(-c7ccc(C(=O)NCCN(C)C)cc7)[nH]c6c5)cc4[nH]3)cc2)nn1)CC(N)=O)N(C)C(=O)CNCCCn1cc(COCCOCCOCCOCCNC(=O)c2ccc(-c3nc4ccc(-c5ccc6nc(-c7ccc(C(=O)NCCN(C)C)cc7)[nH]c6c5)cc4[nH]3)cc2)nn1` [Compound 431]: the 50% inhibitory concentration (IC50) (Table M) was more than 200 µM. As to `CC(=O)Nc1ccc2nc(-c3ccc(-c4nc5ccc(Nc6ncccn6)cc5[nH]4)cc3)[nH]c2c1` [Compound 7, N-(2-(4-(5-(pyrimidin-2-ylamino)-1H-benzo[d]imidazol-2-yl)phenyl)-1H-benzo[d]imidazol-5-yl)acetamide], 80 µM corresponded to half-maximal inhibition (Table L) (IC50). Turning to `CN(C)CCCCOc1ccc(-c2nc3cc(-c4ccc5[nH]c(-c6ccc(OCCCCN(C)C)cc6)nc5c4)ccc3[nH]2)cc1` [Compound 362], where the note is “Table M”, inhibition was half-maximal at 29 µM (IC50). Compound `COCCOCCOc1cc(-c2nc3ccc(OCCCN(C)C)cc3[nH]2)ccc1-c1nc2ccc(OCCCN(C)C)cc2[nH]1` [Compound 260] gave an IC50 (Table M) of 37.5 µM. This IC50 and that of the compound before are within 1.5-fold of each other.

Compound `Cn1c(-c2ccc(N)cc2)nc2cc(-c3ccc4nc(-c5ccc(N)cc5)n(C)c4c3)ccc21` [Compound 121, 1,3′-dimethyl-2,2′-bis(4-aminophenyl)-1H,3′H-5,5′-bibenzimidazole] displayed an IC50 (Table L) of more than 200 µM.

For the setting “Table M”, `CN(C)CCNC(=O)c1ccc(-c2nc3ccc(-c4ccc5nc(-c6ccc(C(=O)NCC(C)(C)CNC(=O)c7ccc(-c8nc9ccc(-c%10ccc%11nc(-c%12ccc(C(=O)NCCN(C)C)cc%12)[nH]c%11c%10)cc9[nH]8)cc7)cc6)[nH]c5c4)cc3[nH]2)cc1` [Compound 425] came in with a half-inhibitory concentration (IC50) of 9.83 µM. This lies in the single-digit micromolar range. Take `Cn1c(-c2ccc(-c3nc4ccc(Br)cc4n3C)cc2)nc2ccc(Br)cc21` [Compound 90, 1,4-bis(6-bromo-1-methyl-1H-benzo[d]imidazol-2-yl)benzene]: the IC50 (Table L) was more than 200 µM. Compound `C[C@H](CNC(=O)c1ccc(-c2nc3ccc(-c4ccc5nc(-c6ccc(C(=O)NCCN(C)C)cc6)[nH]c5c4)cc3[nH]2)cc1)NC(=O)c1ccc(-c2nc3ccc(-c4ccc5nc(-c6ccc(C(=O)NCCN(C)C)cc6)[nH]c5c4)cc3[nH]2)cc1` [Compound 441] showed an IC50 (Table M) of 66 µM.

`CN(C)CCCOc1ccc2nc(-c3ccc(-c4nc5ccc(C(=O)NCCN6CCCC6)cc5[nH]4)cc3)[nH]c2c1` [Compound 232, 2-(4-(6-(3-(dimethylamino)propoxy)-1H-benzo[d]imidazol-2-yl)phenyl)-N-(2-(pyrrolidin-1-yl)ethyl)-1H-benzo[d]imidazole-6-carboxamide]: the 50% inhibitory concentration (IC50) (Table M) came out at 25 µM. For `Oc1ccc2nc(-c3ccc(-c4nc5ccc(OCCN6CCCC6)cc5[nH]4)cc3)[nH]c2c1` [Compound 204], half-maximal inhibition (Table M) (IC50) required 129 µM. Compound `Nc1ccc2nc(-c3ccc(-c4nc5ccc(Nc6ccccn6)cc5[nH]4)cc3)[nH]c2c1` [Compound 21, 2-(4-(5-amino-1H-benzo[d]imidazol-2-yl)phenyl)-N-(pyridin-2-yl)-1H-benzo[d]imidazol-5-amine] had an IC50 (Table L) of 150 µM. For `C[C@@H](C(=O)N(C)[C@@H](C)C(=O)N(C)[C@@H](C)C(=O)N(C)[C@@H](C)C(=O)N(CCCCN(C)C(=O)c1ccc(-c2nc3cc(-c4ccc5[nH]c(-c6ccc(C(=O)NCCN(C)C)cc6)nc5c4)ccc3[nH]2)cc1)CC(N)=O)N(C)C(=O)c1ccc(-c2nc3cc(-c4ccc5[nH]c(-c6ccc(C(=O)NCCN(C)C)cc6)nc5c4)ccc3[nH]2)cc1` [Compound 416], inhibition (Table M) was half-maximal at 39 µM (IC50).

`Nc1ccc(-c2nc3cc(-c4ccc5[nH]c(-c6ccc(N)cc6)nc5c4)ccc3[nH]2)cc1` [Compound 95, 4,4′-(1H,1′H-[5,5′-bibenzo[d]imidazole]-2,2′-diyl)dianiline] returned an IC50 (Table L) of 106 µM.

`CN(C)CCCN(CCCNC(=O)c1ccc(-c2nc3ccc(-c4ccc5nc(-c6ccc(C(=O)NCCN(C)C)cc6)[nH]c5c4)cc3[nH]2)cc1)C(=O)c1ccc(-c2nc3ccc(-c4ccc5nc(-c6ccc(C(=O)NCCN(C)C)cc6)[nH]c5c4)cc3[nH]2)cc1` [Compound 450]: the half-maximal inhibitory concentration (IC50) (Table M) was 29.2 µM.

Regarding `N=C(NO)c1ccc(-c2nc3cc(-c4ccc5[nH]c(-c6ccc(C(=N)NO)cc6)nc5c4)ccc3[nH]2)cc1` [Compound 98], the IC50 (Table L) is 144 µM. On to `CN(C)CCCOc1ccc2nc(-c3ccc(-c4nc5ccc(O)cc5[nH]4)cc3)[nH]c2c1` [Compound 249], for which, under “Table M”, half-maximal inhibition (IC50) was put at 52.6 µM. In other words, the double-digit micromolar range. For the compound `Cn1c(-c2ccc(-c3nc4ccc(N)cc4n3C)cc2)nc2cc(N)ccc21` [Compound 84, 2-[4-(6-amino-1-methyl-1H-benzimidazol-2-yl)phenyl]-1-methyl-1H-benzimidazol-5-amine], the IC50 (Table L) is more than 200 µM.

`CCOC(CNC(=N)Nc1ccc2nc(-c3ccc(-c4nc5ccc(N)cc5[nH]4)cc3)[nH]c2c1)OCC` [Compound 17, 1-(2-(4-(5-amino-1H-benzo[d]imidazol-2-yl)phenyl)-1H-benzo[d]imidazol-5-yl)-3-(2,2-diethoxyethyl)guanidine] showed an IC50 (Table L) of 37 µM. As for `CN(C)CCNC(=O)c1ccc(-c2nc3ccc(-c4ccc5nc(-c6ccc(C(=O)N(C)CCOCCOCCOCCOCc7cn(CCCNCC(=O)N8CCC[C@H]8C(=O)N8CCC[C@H]8C(=O)N8CCC[C@H]8C(=O)N8CCC[C@H]8C(=O)N(CCCn8cc(COCCOCCOCCOCCN(C)C(=O)c9ccc(-c%10nc%11ccc(-c%12ccc%13nc(-c%14ccc(C(=O)NCCN(C)C)cc%14)[nH]c%13c%12)cc%11[nH]%10)cc9)nn8)CC(N)=O)nn7)cc6)[nH]c5c4)cc3[nH]2)cc1` [Compound 433], the IC50 (Table M) is more than 200 µM. `CN(C)CCCOc1cc(F)cc2nc(-c3ccc(-c4nc5cc(F)cc(OCCCN(C)C)c5[nH]4)cc3)[nH]c12` [Compound 287] came in with an IC50 (Table M) of 8.6 µM. For the compound `CN(C)CCNC(=O)c1ccc2nc(-c3ccc(-c4nc5ccc(C(=O)NCCN(C)CCN)cc5[nH]4)cc3)[nH]c2c1` [Compound 37, N-(2-((2-aminoethyl)(methyl)amino)ethyl)-2-(4-(6-((2-(dimethylamino)ethyl)carbamoyl)-1H-benzo[d]imidazol-2-yl)phenyl)-1H-benzo[d]imidazole-6-carboxamide], where the note is “Table L”, the IC50 came out at 7.8 µM. Take `COC(=O)c1ccc2nc(-c3ccc(-c4nc5ccc(C(=O)OC)cc5[nH]4)cc3)[nH]c2c1` [Compound 10, dimethyl 2,2′-(1,4-phenylene)bis(1H-benzo[d]imidazole-6-carboxylate)]: the IC50 (Table L) is more than 200 µM. Compound `CN(C)CCCCCOc1ccc2nc(-c3ccc(-c4nc5ccc(O)cc5[nH]4)cc3)[nH]c2c1` [Compound 193] returned an IC50 (Table M) of 36.7 µM.

For the compound `Cn1c(-c2ccc(-c3nc4ccc(N)cc4n3C)cc2)nc2ccc(N)cc21` [Compound 85, 2,2′-(1,4-phenylene)bis(1-methyl-1H-benzimidazol-6-amine)], the IC50 (Table L) was more than 200 µM. `COCCNC(=O)c1ccc2nc(-c3ccc(-c4nc5ccc(C(=O)NCCOC)cc5[nH]4)cc3)[nH]c2c1` [Compound 53, 2,2′-(1,4-phenylene)bis(N-(2-methoxyethyl)-1H-benzo[d]imidazole-6-carboxamide)]: the IC50 (Table L) was more than 200 µM. `N#Cc1ccc2nc(-c3ccc(-c4nc5ccc(C6=NCCN6)cc5[nH]4)cc3)[nH]c2c1` [Compound 13, 2-(4-(6-(4,5-dihydro-1H-imidazol-2-yl)-1H-benzo[d]imidazol-2-yl)phenyl)-1H-benzo[d]imidazole-6-carbonitrile] returned an IC50 (Table L) of 48 µM. On to `CN(C)CCNCc1ccc2nc(-c3ccc(-c4nc5ccc(CNCCN(C)C)cc5[nH]4)cc3)[nH]c2c1` [Compound 61], for which the IC50 (Table L) was more than 200 µM.
